Data: US11964971B2, “Methods and compositions for modulating splicing” (Skyhawk Therapeutics, Inc., priority 2019, dated 2024)

Columns and labels:
SMN protein = SMN protein assay (MSD) in SMA patient fibroblasts (GM03813); type: cell-based, human
Description: Compounds are tested on spinal muscular atrophy (SMA) patient fibroblasts (GM03813, Coriell) at doses ranging from 2.5 μM to 0.6 nM. 7000 cells/well are seeded in 96-well plates. Compounds are incubated for 48 hours and the cells were lysed with 100 μL of lysis buffer. 20 μL of lysate is used for SMN protein measurement by Mesoscale Discovery (MSD) assay developed by PharmOptima (Michigan). A standard curve prepared with SMN protein ranging from […] is used in each MSD plate to calculate the absolute SMN protein amount in each sample.

[1] = test system: MDR1-MDCK cell monolayers; details: dog, MDCK-MDR1, 120 min, 5 μM, pH 7.4
MDR1 = assay: in vitro; details: dog; for Papp A→B at 120 min, 5 μM: MDCK-MDR1, pH 7.4, MDCK-MDR1: Papp A-B (10^−6, cm/s); for Papp B→A at 120 min, 5 μM: MDCK-MDR1, pH 7.4, MDCK-MDR1: Papp B-A (10^−6, cm/s)
MDR1 (P-gp) = assay: MDCK-MDR1 permeability assay, blood-brain-barrier penetration potential; details: dog, MDCK-MDR1, pH 7.4, MDCK-MDR1 Efflux Ratio

CN(c1cnc(-c2cc(F)c(-c3cc(=O)n(C)cn3)cc2O)cn1)[C@H]1C[C@@H]2CCC(N2)[C@H]1F (single isomer, unassigned) [Compound 33E2]
EC50 (SMN protein): 501 to 10000 nM
MDCK-MDR1: % Recov A-B (%) [1]: 91%
MDCK-MDR1: % Recov B-A (%) [1]: 99%
Papp A→B at 120 min, 5 μM (MDR1): 3.5 ×10⁻⁶ cm/s
Papp B→A at 120 min, 5 μM (MDR1): 62.7 ×10⁻⁶ cm/s
efflux ratio at 120 min, 5 μM (MDR1 (P-gp)): 18

Cn1cc(-c2cc(O)c(-c3cnc(N(C4CC4)[C@H]4C[C@@H]5CCC(N5)[C@H]4F)cn3)cc2F)cn1 (single isomer, unassigned) [Compound 35E2]
EC50 (SMN protein): 501 to 10000 nM
MDCK-MDR1: % Recov A-B (%) [1]: 32%
MDCK-MDR1: % Recov B-A (%) [1]: 61%
Papp A→B at 120 min, 5 μM (MDR1): 4.64 ×10⁻⁶ cm/s
Papp B→A at 120 min, 5 μM (MDR1): 17.9 ×10⁻⁶ cm/s
efflux ratio at 120 min, 5 μM (MDR1 (P-gp)): 4

COc1cc(-c2ccc(-c3cnc(N(C)[C@H]4C[C@]5(C)CCC[C@@](C)(N5)[C@H]4F)cn3)c(O)c2)cnn1 [Compound 24E2, 2-(5-(((1R,2S,3S,5S)-2-fluoro-1,5-dimethyl-9-azabicyclo[3.3.1]nonan-3-yl)(methyl)amino)pyrazin-2-yl)-5-(6-methoxypyridazin-4-yl)phenol]
EC50 (SMN protein): 501 to 10000 nM
MDCK-MDR1: % Recov A-B (%) [1]: 37%
MDCK-MDR1: % Recov B-A (%) [1]: 44%
Papp A→B at 120 min, 5 μM (MDR1): 3.01 ×10⁻⁶ cm/s
Papp B→A at 120 min, 5 μM (MDR1): 6.99 ×10⁻⁶ cm/s
efflux ratio at 120 min, 5 μM (MDR1 (P-gp)): 2

CN(c1cnc(-c2ccc(-c3cn[nH]c3)cc2O)cn1)[C@@H]1C[C@H]2CCCC(N2)[C@@H]1F (single isomer, unassigned) [Compound 6E1]
EC50 (SMN protein): 501 to 10000 nM
MDCK-MDR1: % Recov A-B (%) [1]: 76%
MDCK-MDR1: % Recov B-A (%) [1]: 69%
Papp A→B at 120 min, 5 μM (MDR1): 4.58 ×10⁻⁶ cm/s
Papp B→A at 120 min, 5 μM (MDR1): 42.3 ×10⁻⁶ cm/s
efflux ratio at 120 min, 5 μM (MDR1 (P-gp)): 9

CN(c1cnc(-c2cc(F)c(-n3ccnn3)cc2O)cn1)[C@@H]1CC2CC[C@H](N2)[C@@H]1F (single isomer, unassigned) [Compound 21E1]
EC50 (SMN protein): 501 to 10000 nM
MDCK-MDR1: % Recov A-B (%) [1]: 83%
MDCK-MDR1: % Recov B-A (%) [1]: 91%
Papp A→B at 120 min, 5 μM (MDR1): 8.48 ×10⁻⁶ cm/s
Papp B→A at 120 min, 5 μM (MDR1): 43.5 ×10⁻⁶ cm/s
efflux ratio at 120 min, 5 μM (MDR1 (P-gp)): 5

CNC(=O)/C=C/c1cc(O)c(-c2cnc(N(C3CC3)[C@@H]3C[C@@]4(C)CC[C@](C)(N4)[C@@H]3F)cn2)cc1F [Compound 79E1, (E)-3-(4-(5-(cyclopropyl((1S,2R,3R,5R)-2-fluoro-1,5-dimethyl-8-azabicyclo[3.2.1]octan-3-yl)amino)pyrazin-2-yl)-2-fluoro-5-hydroxyphenyl)-N-methylacrylamide]
EC50 (SMN protein): 501 to 10000 nM
MDCK-MDR1: % Recov A-B (%) [1]: 84%
MDCK-MDR1: % Recov B-A (%) [1]: 88%
Papp A→B at 120 min, 5 μM (MDR1): 1.67 ×10⁻⁶ cm/s
Papp B→A at 120 min, 5 μM (MDR1): 45.3 ×10⁻⁶ cm/s
efflux ratio at 120 min, 5 μM (MDR1 (P-gp)): 27

COc1cc(-c2cc(O)c(-c3cnc(N(C)[C@@H]4CC5CC(F)(F)[C@@H](C4)N5)cn3)cc2F)cnn1 (single isomer, unassigned) [Compound 67E1]
EC50 (SMN protein): 501 to 10000 nM
MDCK-MDR1: % Recov A-B (%) [1]: 62%
MDCK-MDR1: % Recov B-A (%) [1]: 74%
Papp A→B at 120 min, 5 μM (MDR1): 22.2 ×10⁻⁶ cm/s
Papp B→A at 120 min, 5 μM (MDR1): 42.5 ×10⁻⁶ cm/s
efflux ratio at 120 min, 5 μM (MDR1 (P-gp)): 2

CN(c1cnc(-c2ccc(-c3cc[nH]c(=O)c3)cc2O)cn1)[C@@H]1CC2CC[C@H](N2)[C@@H]1F (single isomer, unassigned) [Compound 76E1]
EC50 (SMN protein): 51 to 100 nM
MDCK-MDR1: % Recov A-B (%) [1]: 89%
MDCK-MDR1: % Recov B-A (%) [1]: 75%
Papp A→B at 120 min, 5 μM (MDR1): 0.29 ×10⁻⁶ cm/s
Papp B→A at 120 min, 5 μM (MDR1): 30.1 ×10⁻⁶ cm/s
efflux ratio at 120 min, 5 μM (MDR1 (P-gp)): 102

Cn1cnc(-c2ccc(-c3cnc(N(C4CC4)[C@H]4C[C@@H]5CCC(N5)[C@H]4F)cn3)c(O)c2)cc1=O (single isomer, unassigned) [Compound 55E2]
EC50 (SMN protein): 501 to 10000 nM
MDCK-MDR1: % Recov A-B (%) [1]: 71%
MDCK-MDR1: % Recov B-A (%) [1]: 76%
Papp A→B at 120 min, 5 μM (MDR1): 2.25 ×10⁻⁶ cm/s
Papp B→A at 120 min, 5 μM (MDR1): 42.2 ×10⁻⁶ cm/s
efflux ratio at 120 min, 5 μM (MDR1 (P-gp)): 19

CN(c1cnc(-c2cc(F)c(-c3cnn(C)c3)cc2O)cn1)[C@H]1C[C@@H]2CCC(N2)[C@H]1F (single isomer, unassigned) [Compound 17E1]
EC50 (SMN protein): 0.01 to 15 nM
MDCK-MDR1: % Recov A-B (%) [1]: 31%
MDCK-MDR1: % Recov B-A (%) [1]: 74%
Papp A→B at 120 min, 5 μM (MDR1): 4.22 ×10⁻⁶ cm/s
Papp B→A at 120 min, 5 μM (MDR1): 18.6 ×10⁻⁶ cm/s
efflux ratio at 120 min, 5 μM (MDR1 (P-gp)): 4

Cn1cnc(-c2cc(O)c(-c3cnc(N(C4CC4)[C@H]4C[C@@H]5CCC(N5)[C@H]4F)cn3)cc2F)cc1=O (single isomer, unassigned) [Compound 50E2]
EC50 (SMN protein): 501 to 10000 nM
MDCK-MDR1: % Recov A-B (%) [1]: 81%
MDCK-MDR1: % Recov B-A (%) [1]: 90%
Papp A→B at 120 min, 5 μM (MDR1): 1.29 ×10⁻⁶ cm/s
Papp B→A at 120 min, 5 μM (MDR1): 49.3 ×10⁻⁶ cm/s
efflux ratio at 120 min, 5 μM (MDR1 (P-gp)): 38

CN(c1cnc(-c2ccc(-c3cn[nH]c3)cc2O)cn1)[C@@H]1C[C@H]2CCC(N2)[C@@H]1F (single isomer, unassigned) [Compound 8E1]
EC50 (SMN protein): 501 to 10000 nM
MDCK-MDR1: % Recov A-B (%) [1]: 72%
MDCK-MDR1: % Recov B-A (%) [1]: 71%
Papp A→B at 120 min, 5 μM (MDR1): 3.58 ×10⁻⁶ cm/s
Papp B→A at 120 min, 5 μM (MDR1): 33.3 ×10⁻⁶ cm/s
efflux ratio at 120 min, 5 μM (MDR1 (P-gp)): 9

COc1cc(-c2cc(O)c(-c3cnc(N(C)[C@@H]4C[C@@]5(C)CC[C@](C)(N5)[C@@H]4F)cn3)cc2F)cnn1 (single isomer, unassigned) [Compound 64E1]
EC50 (SMN protein): 501 to 10000 nM
MDCK-MDR1: % Recov A-B (%) [1]: 71%
MDCK-MDR1: % Recov B-A (%) [1]: 80%
Papp A→B at 120 min, 5 μM (MDR1): 3.97 ×10⁻⁶ cm/s
Papp B→A at 120 min, 5 μM (MDR1): 49.8 ×10⁻⁶ cm/s
efflux ratio at 120 min, 5 μM (MDR1 (P-gp)): 13

COc1cc(-c2cc(O)c(-c3cnc(N(C4CC4)[C@@H]4CC5CC[C@H](N5)[C@@H]4F)cn3)cc2F)cc(F)n1 (single isomer, unassigned) [Compound 37E1]
EC50 (SMN protein): 501 to 10000 nM
MDCK-MDR1: % Recov A-B (%) [1]: 18%
MDCK-MDR1: % Recov B-A (%) [1]: 53%
Papp A→B at 120 min, 5 μM (MDR1): 1.41 ×10⁻⁶ cm/s
Papp B→A at 120 min, 5 μM (MDR1): 2.73 ×10⁻⁶ cm/s
efflux ratio at 120 min, 5 μM (MDR1 (P-gp)): 2

Cn1cnc(-c2ccc(-c3cnc(N(C4CC4)[C@@H]4CC5CC[C@H](N5)[C@@H]4F)cn3)c(O)c2)cc1=O (single isomer, unassigned) [Compound 55E1]
EC50 (SMN protein): 501 to 10000 nM
MDCK-MDR1: % Recov A-B (%) [1]: 81%
MDCK-MDR1: % Recov B-A (%) [1]: 85%
Papp A→B at 120 min, 5 μM (MDR1): 2.46 ×10⁻⁶ cm/s
Papp B→A at 120 min, 5 μM (MDR1): 64.4 ×10⁻⁶ cm/s
efflux ratio at 120 min, 5 μM (MDR1 (P-gp)): 26

CN(c1cnc(-c2cc3oc(C(=O)N4CCC4)cc3cc2O)cn1)[C@H]1C[C@@H]2CCC(N2)[C@H]1F (single isomer, unassigned) [Compound 20E2]
EC50 (SMN protein): 501 to 10000 nM
MDCK-MDR1: % Recov A-B (%) [1]: 75%
MDCK-MDR1: % Recov B-A (%) [1]: 79%
Papp A→B at 120 min, 5 μM (MDR1): 0.94 ×10⁻⁶ cm/s
Papp B→A at 120 min, 5 μM (MDR1): 41.9 ×10⁻⁶ cm/s
efflux ratio at 120 min, 5 μM (MDR1 (P-gp)): 45

COc1cc(-c2ccc(-c3cnc(N(C4CC4)[C@@H]4CC5CC[C@H](N5)[C@@H]4F)cn3)c(O)c2)ccn1 (single isomer, unassigned) [Compound 51E1]
EC50 (SMN protein): 501 to 10000 nM
MDCK-MDR1: % Recov A-B (%) [1]: 8%
MDCK-MDR1: % Recov B-A (%) [1]: 34%
Papp A→B at 120 min, 5 μM (MDR1): 1.5 ×10⁻⁶ cm/s
Papp B→A at 120 min, 5 μM (MDR1): 3.19 ×10⁻⁶ cm/s
efflux ratio at 120 min, 5 μM (MDR1 (P-gp)): 2

CN(c1cnc(-c2ccc(-c3cn[nH]c3)cc2O)cn1)[C@@H]1C[C@@]2(C)CCC[C@](C)(N2)[C@@H]1F [Compound 23E1, 2-(5-(((1S,2R,3R,5R)-2-fluoro-1,5-dimethyl-9-azabicyclo[3.3.1]nonan-3-yl)(methyl)amino)pyrazin-2-yl)-5-(1H-pyrazol-4-yl)phenol]
EC50 (SMN protein): 501 to 10000 nM
MDCK-MDR1: % Recov A-B (%) [1]: 56%
MDCK-MDR1: % Recov B-A (%) [1]: 78%
Papp A→B at 120 min, 5 μM (MDR1): 9.07 ×10⁻⁶ cm/s
Papp B→A at 120 min, 5 μM (MDR1): 38.7 ×10⁻⁶ cm/s
efflux ratio at 120 min, 5 μM (MDR1 (P-gp)): 4
